Data from patent US4800161A (priority 1984, dated 1989).

Key:
[1] = molecular target: aldose-1-epimerase (mutarotase, EC 5.1.3.3) from Acinetobacter calcoaceticus (Acinetobacter calcoaceticus, UniProt P05149)
Experimental: Principle: [drawing 1] Mutarotase, glucose-dehydrogenase and NAD are caused to react with a freshly prepared solution of α-glucose, and the NADH2 is determined by measuring the extinction at 366 nm. The measurement of the acceleration of the formation of NADH2 by mutarotase (compared with a blank without mutarotase) allows the mutarotase activity in the solution used to be calculated.
As soon as the extinction is constant, the start is made with 0.10 ml of solution 4 in each case.
A fresh glucose solution is prepared for each measurement. It is absolutely necessary to adhere to the following procedure in order to allow for the existing mutarotation: a 150 ml beaker is filled with 100 ml of distilled water and the temperature is adjusted to 20° C. The beaker is evenly stirred, 30 mg of α-glucose are added, the stopwatch is started and the time is marked on the recorder chart. Mixing takes place for 30 seconds. Within the next 15 seconds, the glucose solution is pipetted into the cell, the cell content is thoroughly mixed and, after the expiration of these 15 seconds, the increase in extinction is recorded. The measurment is taken at 366 nm, layer thickness 1 cm, cell temperature 25° C.
For evaluation, a tangent is put to the linear part at the origin of the recording curve, and ΔE/minute is read off; subtraction of the blank from the analysis value gives a value of ΔΔE/minute, which is inserted into the following calculation equation:
Enzyme activity=ΔΔE/minute×4.09 U of mutarotase per ml of […]

[2] = molecular target: mutarotase from bovine kidneys (Bos taurus, UniProt Q5EA79); conditions: read-out: Michaelis constant (KM); glucose determination context
Chain of mutarotase from bovine kidneys (Q5EA79 whole entry): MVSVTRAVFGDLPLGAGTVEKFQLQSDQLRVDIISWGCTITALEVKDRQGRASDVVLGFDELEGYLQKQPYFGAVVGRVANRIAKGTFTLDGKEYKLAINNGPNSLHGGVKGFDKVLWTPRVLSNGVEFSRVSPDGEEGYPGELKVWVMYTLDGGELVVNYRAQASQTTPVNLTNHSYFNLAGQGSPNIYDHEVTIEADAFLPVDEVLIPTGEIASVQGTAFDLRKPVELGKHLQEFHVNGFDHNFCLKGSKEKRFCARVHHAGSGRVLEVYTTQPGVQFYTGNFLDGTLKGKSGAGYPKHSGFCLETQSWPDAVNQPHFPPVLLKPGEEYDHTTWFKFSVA

[3] = test system: mutarotase from Aspergillus niger; conditions: read-out: Michaelis constant (KM); Biochim. Biophys. Acta 662, 285 (1981); cited from earlier work

Chain of aldose-1-epimerase (mutarotase, EC 5.1.3.3) from Acinetobacter calcoaceticus (P05149 21-381): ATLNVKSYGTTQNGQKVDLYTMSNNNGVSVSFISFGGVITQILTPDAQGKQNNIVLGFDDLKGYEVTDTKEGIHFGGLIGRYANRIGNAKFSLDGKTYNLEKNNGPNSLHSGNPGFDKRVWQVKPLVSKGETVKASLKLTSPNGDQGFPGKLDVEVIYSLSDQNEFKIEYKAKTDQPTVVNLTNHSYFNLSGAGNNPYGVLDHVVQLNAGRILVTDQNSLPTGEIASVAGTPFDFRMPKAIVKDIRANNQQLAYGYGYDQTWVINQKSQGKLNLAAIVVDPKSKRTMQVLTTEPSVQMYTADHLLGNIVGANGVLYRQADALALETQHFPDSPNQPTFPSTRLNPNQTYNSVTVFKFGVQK

Substance	Michaelis constant for galactose compared with glucose [1]	Michaelis constant for galactose relative to that of the mutarotase from bovine kidneys [1] [times]	Km [2] [mM]	Km ([1]; read-out: Michaelis constant (KM) for glucose, mutarotase according to the invention) [mM]	Km [3] [mM]
galactose	same Michaelis constant	3			
glucose			18 to 20	6 to 8	50
